“And” between values parts separate entries of the source, which are not always exact repeats. Identical values can stand only once.
System: Candida albicans ATCC14053
Assay: Broth micro-dilution screen at 16 μg/mL and MIC (Example 9)
Assay type: cell-based
Conditions: for Screen at 16 μg/mL: single concentration 16 μg/mL, Growth or No growth of C. albicans ATCC14053; for MIC: C. albicans ATCC14053, test range 0.25-64 μg/mL, duplicate
Method: The antifungal activity of 201 NCL analogs against Candida albicans ATCC14053 in vitro was investigated. A broth micro-dilution method was used, according to CLSI guidelines as described. NCL analogs were dissolved in DMSO and originally screened at a single concentration of 16 μg/mL.

SMILES | Screen at 16 μg/mL | MIC
Cl.N=C(NN=Cc1ccccc1Br)NN=Cc1ccccc1Br [NCL129] | Growth | 
COc1cc(C=NNC(=N)NN=Cc2cc(Br)c(OC)c(OC)c2)cc(Br)c1OC.Cl [NCL130] | Growth | 
Cl.N=C(NN=Cc1cccc(Br)c1)NN=Cc1cccc(Br)c1 [NCL131] | Growth | 
Cl.N=C(NN=CC1=C(Cl)c2cc(F)ccc2OC1)NN=CC1=C(Cl)c2cc(F)ccc2OC1 [NCL132] | Growth | 
Cl.N=C(NN=Cc1cc(Br)co1)NN=Cc1cc(Br)co1 [NCL133] | Growth | 
Cl.N=C(NN=Cc1ccc(Br)cc1)NN=Cc1ccc(Br)cc1 [NCL134] | No growth | <1 µg/mL
CCCCc1ccc(C=NNC(=N)NN=Cc2ccc(CCCC)cc2)cc1.Cl [NCL136] | Growth | 
Cl.N=C(NN=Cc1c(Cl)cccc1Cl)NN=Cc1c(Cl)cccc1Cl [NCL137] | Growth | 
Cl.N=C(NN=CC(=Cc1ccccc1)c1ccccc1)NN=CC(=Cc1ccccc1)c1ccccc1 [NCL138] | Growth | 
CSc1ccc(C=NNC(=N)NN=Cc2ccc(SC)cc2)cc1.Cl [NCL140] | No growth | 1 µg/mL and 2 µg/mL
CC(=NNC(=N)NN=C(C)c1ccccc1)c1ccccc1.Cl [NCL143] | Growth | 
Cl.N=C(NN=Cc1ccc(Br)o1)NN=Cc1ccc(Br)o1 [NCL144] | Growth | 
Cl.N=C(NN=Cc1ccc(Cl)o1)NN=Cc1ccc(Cl)o1 [NCL145] | Growth | 
Cl.N=C(NN=Cc1ccc2[nH]ccc2c1)NN=Cc1ccc2[nH]ccc2c1 [NCL146] | No growth | 4 µg/mL and 8 µg/mL
Cl.N=C(NN=Cc1cnc2ccccc2n1)NN=Cc1cnc2ccccc2n1 [NCL147] | Growth | 
Cl.N=C(NN=Cc1ccc(C=CC(=O)O)cc1)NN=Cc1ccc(C=CC(=O)O)cc1 [NCL148] | Growth | 
Cl.N=C(NN=Cc1ccncc1)NN=Cc1ccncc1 [NCL149] | Growth | 
COc1ccc(C=CC=NNC(=N)NN=CC=Cc2ccc(OC)cc2)cc1.Cl [NCL150] | No growth | 1 µg/mL
Cl.N=C(NN=Cc1ccc(O)cc1)NN=Cc1ccc(O)cc1 [NCL151] | Growth | 
Cc1cccc(C=NNC(=N)NN=Cc2cccc(C)c2O)c1O.Cl [NCL152] | Growth | 
CCC(=NNC(=N)NN=C(CC)c1ccc(Cl)cc1)c1ccc(Cl)cc1.Cl [NCL153] | Growth | 

SMILES | Screen at 16 μg/mL | MIC
CCCCC(=NNC(=N)NN=C(CCCC)c1ccc(Cl)cc1)c1ccc(Cl)cc1.Cl [NCL154] | Growth | 
CC(=NNC(=N)NN=C(C)c1ccc(Br)cc1)c1ccc(Br)cc1.Cl [NCL155] | Growth | 
CCCC(=NNC(=N)NN=C(CCC)c1ccc(Cl)cc1)c1ccc(Cl)cc1.Cl [NCL156] | Growth | 
Cl.N=C(NN=Cc1ccc(OC(F)(F)F)cc1)NN=Cc1ccc(OC(F)(F)F)cc1 [NCL160] | No growth | 1 µg/mL and 2 µg/mL
CCO/C(N)=N/N=C(\C)c1ccc(Cl)cc1 [NCL162] | Growth | 
Cl.N=C(NN=C1C(=O)Nc2ccccc21)NN=C1C(=O)Nc2ccccc21 [NCL163] | Growth | 
Cl.N=C(NN=Cc1ccc(SC(F)(F)F)cc1)NN=Cc1ccc(SC(F)(F)F)cc1 [NCL166] | Growth | 
Cl.N=C(NN=C(C(=O)O)c1ccccc1)NN=C(C(=O)O)c1ccccc1 [NCL167] | Growth | 
CC(=O)Nc1cc(Cl)ccc1C=NNC(=N)NN=Cc1ccc(Cl)cc1NC(C)=O [NCL170] | Growth | 
CC(=NNC(=N)NN=C(C)c1ccccn1)c1ccccn1.Cl [NCL172] | Growth | 
Cl.N=C(NN=Cc1cnccc1Cl)NN=Cc1cnccc1Cl [NCL175] | Growth | 
Cl.N=C(NN=C(CO)c1ccc(Cl)cc1)NN=C(CO)c1ccc(Cl)cc1 [NCL177] | Growth | 
CC(=NNc1cc(NN=C(C)c2ccc(Cl)cc2)ncn1)c1ccc(Cl)cc1 [NCL178] | Growth | 
Nc1nc(NN=Cc2ccc(Cl)cc2)cc(NN=Cc2ccc(Cl)cc2)n1 [NCL179] | Growth | 
CC(Nc1cc(NC(C)c2ccccc2)nc(N)n1)c1ccccc1 (stereo not shown) [NCL184] | Growth | 
CC(=NNc1cc(NN=C(C)c2ccc(Cl)cc2)ncn1)c1ccc(Cl)cc1.Cl [NCL185] | Growth | 
Cl.Clc1ccc(/C=N/Nc2cc(N/N=C/c3ccc(Cl)cc3)ncn2)cc1 [NCL187] | Growth | 
CCCCC(=NNC(=N)N)c1ccc(Cl)cc1.Cl [NCL188] | Growth | 
Cl.OCC(=NNc1cc(NN=C(CO)c2ccc(Cl)cc2)ncn1)c1ccc(Cl)cc1 [NCL189] | Growth | 
Cl.N=C(N)NN=C(CNN)c1ccc(Cl)cc1 [NCL190] | Growth | 
Cl.N=C(N)N/N=C(\C(=O)O)c1ccccc1 [NCL192] | Growth | 

SMILES | Screen at 16 μg/mL | MIC
Nc1nc(NN=Cc2ccc(Br)cc2)cc(NN=Cc2ccc(Br)cc2)n1 [NCL193] | Growth | 
Nc1nc(NN=Cc2ccc(O)cc2)cc(NN=Cc2ccc(O)cc2)n1 [NCL196] | Growth | 
Nc1nc(NN=Cc2cccc(O)c2)cc(NN=Cc2cccc(O)c2)n1 [NCL197] | Growth | 
CC(C)(C)c1ccc(C=NNc2cc(NN=Cc3ccc(C(C)(C)C)cc3)nc(N)n2)cc1.Cl.Cl [NCL198] | Growth | 
Nc1nc(NN=Cc2ccccc2)cc(NN=Cc2ccccc2)n1 [NCL199] | Growth | 
CN(C)c1ccc(C=NNc2cc(NN=Cc3ccc(N(C)C)cc3)nc(N)n2)cc1 [NCL201] | Growth | 
Nc1nc(NN=Cc2ccccc2O)cc(NN=Cc2ccccc2O)n1 [NCL202] | Growth | 
Cl.Cl.Nc1nc(NN=CC2CCCCC2)cc(NN=CC2CCCCC2)n1 [NCL203] | Growth | 
CC(=NNc1cc(NN=C(C)c2ccc(Cl)cc2)nc(N)n1)c1ccc(Cl)cc1 [NCL204] | Growth | 
Nc1nc(NN=Cc2ccccc2Cl)cc(NN=Cc2ccccc2Cl)n1 [NCL205] | Growth | 
Cc1ccc(C=NNc2nc(N)nc(NN=Cc3ccc(C)cc3)n2)cc1 [NCL206] | Growth | 
Nc1nc(NN=Cc2ccccc2O)nc(NN=Cc2ccccc2O)n1 [NCL207] | Growth | 
CC(=NNc1nc(N)nc(NN=C(C)c2ccc(Cl)cc2)n1)c1ccc(Cl)cc1 [NCL208] | Growth | 
Nc1nc(NN=Cc2ccc(O)cc2)nc(NN=Cc2ccc(O)cc2)n1 [NCL211] | Growth | 
Nc1nc(NN=Cc2ccc(Br)cc2)nc(NN=Cc2ccc(Br)cc2)n1 [NCL212] | Growth | 
Nc1nc(NN=CC2CCCCC2)nc(NN=CC2CCCCC2)n1 [NCL213] | Growth | 
Nc1nc(NN=Cc2ccccc2)nc(NN=Cc2ccccc2)n1 [NCL214] | Growth | 
CC(=NNC(=N)NN=C(C)c1ccc(Cl)cc1F)c1ccc(Cl)cc1F.Cl [NCL215] | Growth | 
Cl.N=C(NN=Cc1ccc(Cl)cc1F)NN=Cc1ccc(Cl)cc1F [NCL216] | Growth | >64 µg/mL
C/C(=N\NC(=N)N/N=C(\C)c1ccc(C)cc1)c1ccc(C)cc1.Cl [NCL217] | No growth | 4 µg/mL
Nc1nc(NN=Cc2ccc(C(F)(F)F)cc2)cc(NN=Cc2ccc(C(F)(F)F)cc2)n1 [NCL221] | Growth | 

SMILES | Screen at 16 μg/mL | MIC
Nc1nc(N/N=C/c2ccc(F)c(F)c2)cc(N/N=C/c2ccc(F)c(F)c2)n1 [NCL222] | Growth | 
CC(=O)Nc1ccc(C=NNc2cc(NN=Cc3ccc(NC(C)=O)cc3)nc(N)n2)cc1 [NCL223] | Growth | 
CCOC(=O)N(/N=C/c1ccc(Cl)cc1)C(=N)N/N=C/c1ccc(Cl)cc1 [NCL224] | Growth | 
CC(C)COC(=O)N(N=Cc1ccc(Cl)cc1)C(N)=NN=Cc1ccc(Cl)cc1 [NCL225] | Growth | 
NC(=NN=Cc1ccc(Cl)cc1)N(N=Cc1ccc(Cl)cc1)C(=O)NCc1ccccc1 [NCL227] | Growth | >64 µg/mL
NC(=NN=Cc1ccc(Cl)cc1)N(N=Cc1ccc(Cl)cc1)C(=O)NCc1ccco1 [NCL229] | Growth | 
COc1ccc(C=NNc2cc(NN=Cc3ccc(OC)cc3)nc(N)n2)cc1 [NCL230] | Growth | 
CC(=NNC(=N)N)c1ccc(C(C)(C)C)cc1 [NCL231] | Growth | 
CC(C)(C)c1ccc(C=NNC(=N)N)cc1 [NCL232] | Growth | 
CCCC(=NNC(=N)N)c1ccc(Cl)cc1.Cl [NCL233] | Growth | 
CCC(=NNC(=N)N)c1ccc(Cl)cc1 [NCL234] | Growth | 
N=C(N)NN=Cc1ccc(Cl)cc1F [NCL235] | Growth | 
CC(=NNC(=N)N)c1ccc(Cl)cc1F [NCL236] | Growth | 
N=C(N)NN=C(CC1CCCCC1)c1ccc(Cl)cc1O [NCL237] | Growth | 
Nc1nc(NN=Cc2ccc(Cl)nc2)cc(NN=Cc2ccc(Cl)nc2)n1 [NCL238] | Growth | 
Nc1nc(NN=Cc2cccnc2)cc(NN=Cc2cccnc2)n1 [NCL239] | Growth | 
Nc1nc(NN=Cc2ccncc2)cc(NN=Cc2ccncc2)n1 [NCL241] | Growth | 
Nc1nc(NN=Cc2ccc(O)c(O)c2)cc(NN=Cc2ccc(O)c(O)c2)n1 [NCL243] | No growth | 16 µg/mL and 32 µg/mL
Nc1nc(NN=Cc2cccc(O)c2O)cc(NN=Cc2cccc(O)c2O)n1.O=Cc1cccc(O)c1O [NCL244] | Growth | >64 µg/mL
Nc1nc(NN=Cc2cccc3ccccc23)cc(NN=Cc2cccc3ccccc23)n1 [NCL245] | Growth | 
Nc1nc(NN=CC=Cc2ccccc2)cc(NN=CC=Cc2ccccc2)n1 [NCL246] | Growth | 
